# Data: PubChem BioAssay (NCI)
#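 Tested at 5 concentrations; 48 h exposure; 96-well plates; endpoints linearly interpolated, else capped at highest concentration. GI50 marks 50% less growth. TGI marks complete inhibition of growth.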
# Assays:
# Test in all cases: inhibition of tumour cell growth, NCI panel, 48 h
# EKVX NSCLC = test system: EKVX NSCLC
# IGROV1 ovarian = test system: IGROV1 ovarian
# MALME-3M melanoma = test system: MALME-3M melanoma
# OVCAR-5 ovarian = test system: OVCAR-5 ovarian
# RPMI-8226 leukemia = test system: RPMI-8226 leukemia
# SNB-19 CNS = test system: SNB-19 CNS
# M14 melanoma = test system: M14 melanoma
# OVCAR-8 ovarian = test system: OVCAR-8 ovarian
# PC-3 prostate = test system: PC-3 prostate
# SK-MEL-2 melanoma = test system: SK-MEL-2 melanoma
SMILES,TGI (EKVX NSCLC) [µM],TGI (IGROV1 ovarian) [µM],TGI (MALME-3M melanoma) [µM],GI50 (OVCAR-5 ovarian) [µM],TGI (OVCAR-5 ovarian) [µM],TGI (RPMI-8226 leukemia) [µM],TGI (SNB-19 CNS) [µM],TGI (M14 melanoma) [µM],TGI (OVCAR-8 ovarian) [µM],TGI (PC-3 prostate) [µM],TGI (SK-MEL-2 melanoma) [µM]
COc1cc2c(c(OC)c1OC)-c1ccc(SC)c(=O)cc1[C@@H](NCc1ccc(C#N)cc1)CC2,> 100,> 100,> 100,3.15,> 100,> 100,> 100,–,–,–,–
C[C@]12CC[C@H]3[C@@H](CC=C4C[C@@H](N5CCCC5)CC[C@@]43C)[C@@H]1C[C@H](N1CCOCC1)[C@@H]2O,> 100,> 100,> 100,–,> 100,> 100,> 100,> 10,> 100,> 100,–
O=C(/C=C/c1ccc(O)cc1)c1ccc2c(c1)OCO2,> 100,28.9,> 100,–,93,–,36.3,51.9,29.6,62.2,62.4
O=S(=O)(CCBr)CCBr,–,18.8,9.2,–,26.7,12.1,35,–,5.68,–,26
NC(CCCC(N)P(=O)(O)c1ccccc1)P(=O)(O)c1ccccc1 (stereo unspecified),> 261,> 261,> 261,–,–,> 261,> 261,> 261,> 261,–,> 261
CC[C@H](O)[C@H](C)C=C1SCCCS1,> 100,> 100,> 100,–,> 100,> 100,–,> 100,> 100,> 100,> 100
CC(=O)N=C1N(/C=C2\C(=O)Oc3ccccc3C2=O)C(=O)/C(=C/c2ccc(OC(C)=O)cc2)N1C,> 100,> 100,> 100,–,> 100,> 100,–,> 100,> 100,> 100,> 100
C[n+]1c(-c2ccc(/C=N/NC(=N)N/N=C/c3ccc(-c4cn5cc(Cl)ccc5[n+]4C)cc3)cc2)cn2cc(Cl)ccc21,> 100,> 100,–,–,> 100,> 100,> 100,> 100,> 100,> 100,–
COc1cc(C2c3cc4c(cc3[C@@H](Nc3ccccc3)C3COC[C@H]23)OCO4)cc(OC)c1O (stereo partly specified),> 100,> 100,–,–,9.83,5.22,> 100,> 100,> 100,> 100,–
O=C(c1ccccc1)N1CCN(C(=S)N(C(=O)c2ccccc2)c2ccccc2)C1=S,19.5,12.6,19.1,–,42.1,–,26.3,9.51,13.3,20.5,23.5
[N-]=[N+]=C1N=CN=C1c1ncn[nH]1,> 100,> 100,> 100,–,–,38.8,> 100,> 100,> 100,> 100,> 100
CCc1cc(Cc2cc(Cl)c(NC(=O)C(=O)C3NC(=O)NC3=O)c(CC)c2)cc(Cl)c1NC(=O)C(=O)C1NC(=O)NC1=O (stereo unspecified),> 100,> 100,> 100,–,> 100,> 100,> 100,> 100,58.6,–,> 100
